Here are results for 3 molecules from US20200407370A1, “PEPTIDYLARGININE DEIMINASE INHIBITOR AND USE THEREOF” (Nanjing Transthera Biosciences Co., Ltd., priority 2018, published 2020).

Broadly, the IC50 is the concentration needed to halve the response being measured. A high value points to a need for much substance. As a reminder, the microsomal CLint is the rate of metabolic loss divided by the concentration. High values mean rapid turnover, low ones slow turnover. The bioavailability is the share of a dose that reaches the circulation, judged against a reference dose that is usually intravenous. In general, clearance refers to the rate of elimination divided by the concentration.

The target of data set [1] is T1, Peptidylarginine deiminase 4 (PAD4) (Homo sapiens, UniProt Q9UM07).
T1 construct: purchased Cayman 10500
T1 sequence (Q9UM07 whole entry): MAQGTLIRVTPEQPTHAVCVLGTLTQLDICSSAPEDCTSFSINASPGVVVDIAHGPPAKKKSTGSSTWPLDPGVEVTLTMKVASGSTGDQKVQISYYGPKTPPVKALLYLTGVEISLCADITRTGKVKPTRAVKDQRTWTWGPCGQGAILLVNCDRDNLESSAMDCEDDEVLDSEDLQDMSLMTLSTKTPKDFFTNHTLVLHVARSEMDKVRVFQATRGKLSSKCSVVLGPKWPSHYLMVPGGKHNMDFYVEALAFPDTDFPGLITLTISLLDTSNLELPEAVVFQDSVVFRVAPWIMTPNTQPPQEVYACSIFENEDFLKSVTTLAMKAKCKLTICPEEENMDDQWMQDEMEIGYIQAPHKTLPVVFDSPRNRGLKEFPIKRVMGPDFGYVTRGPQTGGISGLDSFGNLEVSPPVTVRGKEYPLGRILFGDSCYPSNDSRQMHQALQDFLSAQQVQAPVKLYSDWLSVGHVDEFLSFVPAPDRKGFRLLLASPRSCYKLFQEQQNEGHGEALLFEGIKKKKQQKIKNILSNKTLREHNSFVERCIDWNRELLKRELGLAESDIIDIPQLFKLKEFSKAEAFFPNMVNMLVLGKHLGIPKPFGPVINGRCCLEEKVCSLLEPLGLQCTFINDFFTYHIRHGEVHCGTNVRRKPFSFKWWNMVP
As to the kind of experiment: Assay of enzyme-inhibiting activity (PAD4, FAM-AcH4(1-5) peptide, Caliper detection). To be noted: 10 nM PAD4, 5 μM peptide, 0.1 mM Ca2+, pH 8.0. Format: biochemical. The protocol:
Experimental Example 1: Assay of Enzyme-Inhibiting Activity of Compound
Sample: The compound disclosed herein prepared according to exemplary methods.
Peptidylarginine deiminase 4 (PAD4): Cayman, Cat. No. 10500, Lot. No. 0519694;
Carboxyfluorescein-labeled peptide (Peptide FAM-AcH4 (1-5)): GL Biochem, Cat. No. 0200046, Lot. No. P161110-TL545976;
An appropriate amount of the compound to be assayed was dissolved in DMSO to 10 mM. An appropriate amount of 10 mM mother liquor of the compound to be assayed was diluted to 1.5 mM with DMSO, and the solution was then serially diluted 3-fold with DMSO to give 50× concentrations of gradient compound solutions. Finally, 10-fold dilution was carried out with reaction buffer (an aqueous solution of 100 mM HEPES (2-[4-(2-hydroxyethyl)piperazin-1-yl]ethanesulfonic acid) containing 0.01% v/v Triton, pH 8.0) to give 5× concentrations of gradient compound solutions (150 μM, 50 μM, 16.667 μM, 5.556 μM, 1.852 μM, 0.617 μM, 0.206 μM, 0.069 μM, 0.023 μM, and 0.008 μM).
1) Reaction buffer: aqueous solution of 100 mM HEPES (2-[4-(2-hydroxyethyl)piperazin-1-yl]ethanesulfonic acid) containing 0.01% v/v Triton, pH 8.0;
2) Stop solution: aqueous solution of 100 mM HEPES (2-[4-(2-hydroxyethyl)piperazin-1-yl]ethanesulfonic acid) containing 0.015% w/v Brij-35, 0.2% v/v Coating Reagent (coating solution) #3 (PE, part no. 760050) and 50 mM EDTA, pH 8.0;
3) 2.5× enzyme solution: An appropriate amount of PAD4 was diluted to 2.5× (final concentration: 10 nM) with reaction buffer;
4) 2.5× polypeptide solution: An appropriate amount of carboxyfluorescein -labeled peptide (FAM-AcH4(1-5) peptide) and CaCl2) solution was diluted to 2.5× (the final concentration of polypeptide: 5 μM, the final concentration of Ca^2+: 0.1 mM) with reaction buffer.
5 μL of 5× compound solutions or solvents with different concentrations were added to a 384-well plate, 10 μL of 2.5× enzyme solution was then added, and the plate was incubated at room temperature for 10 min. 10 μL of 2.5× polypeptide solution was then added to each well, and the plate was incubated at 28° C. for a certain period of time. 25 μL of stop solution was added to stop reaction. Caliper was used for detection. The inhibition rate was calculated according to the following formula:
Inhibition percentage=(max−transformation)/(max−min)*100.
“max” denotes DMSO control; and “min” denotes low control.

Data set [2] is described as follows: Liver microsomal stability in human. Format: in vitro ADME. To be noted: human liver microsomes, 0.5 mg protein/mL, 1 μM compound, 37° C. The protocol:
(§1) Experimental Example 2: Evaluation on Liver Microsomal Stability of the Compound Disclosed Herein in Human/Canine
(§2) An appropriate amount of the compound was precisely weighed and dissolved in DMSO to prepare a 5.0 mM stock solution. 5.0 mM stock solution was diluted to 1.0 mM with DMSO, and then diluted with water to 10 μM, serving as a compound working solution for later use (DMSO content in the reaction system: 0.1% v/v).
(§3) • (1) The liver microsomes (20 mg protein/mL) were taken from a −80° C. refrigerator, pre-incubated on a 37° C. water bath thermostatic oscillator for 3 min, and thawed for use. • (2) A mixed incubation system solution (without compounds or β-NADPH) was prepared according to the proportion of “composition of the incubation system” described above and pre-incubated on a 37° C. water bath thermostatic oscillator for 2 min. • (3) Control group (without β-NADPH): 30 μL of water and 30 μL of compound working solution (10 μM) were added to 240 μL of the mixed incubation system solution in step (2), and the mixture was vortexed for 30 s and mixed. The total volume of the mixture was 300 μL. The sample was duplicated. The reaction solution was placed on a 37° C. water bath thermostatic oscillator for incubation, and timing was started. Samples were collected at 0 min and 60 min. • (4) Sample group: 70 μL of β-NADPH solution (10 mM) and 70 μL of compound working solution (10 μM) were added to 560 μL of the mixed incubation system solution in step (2), and the total volume of the mixture was 700 μL. The mixture was vortexed for 30 s and mixed. The sample was duplicated. The reaction solution was placed on a 37° C. water bath thermostatic oscillator for incubation, and timing was started. Samples were collected at 0 min, 5 min, 10 min, 20 min, 30 min and 60 min after timing. • (5) The reaction solution was vortexed for 3 min, and centrifuged at 12,000 rpm for 5 min. • (6) 50 μL of the supernatant was added to 150 μL of water, and the resulting solution was vortexed and mixed before LC/MS/MS analysis.
(§4) The half-life (t1/2) and clearance (Cl) were calculated using the following first-order kinetic formula:
(§5) Vd=1/protein content in liver microsomes
(§6) Note: k denotes the slope of the logarithm of the remaining amount of a compound vs. time, Vd denotes apparent volume of distribution, C0 denotes drug concentration at 0 h, Ct denotes drug concentration at time t, t denotes time, e denotes natural number, and Clint denotes intrinsic clearance.
A general note: Liver microsomes are a subcellular fraction often used to study metabolism.

The nature of data set [3]: Liver microsomal stability in canine. Format: in vitro ADME. To be noted: dog; canine liver microsomes, 0.5 mg protein/mL, 1 μM compound, 37° C. The protocol:
as §1, §2, §3, §4, §5, §6

Data set [4] is described as follows: Pharmacokinetics (PK) of the compound in rats. The note with it: rat, plasma, SD rats. Format: in vivo. The protocol: Experimental Example 3: Pharmacokinetics (PK) of the Compound in Rats
The test compound was dissolved in a mixture of 5% v/v DMSO+20% v/v (30% v/v solutol (polyethylene glycol-15 hydroxystearate purchased from BASF, batch no. 84773247G0))+75% v/v brine to prepare a solution, which was then administered to SD rats by oral gavage at a dose of 5.0 mg/kg. Blood samples were collected at 15 min, 30 min, 1 h, 2 h, 4 h, 6 h, 8 h and 24 h.
The test compound was dissolved in a mixture of 5% v/v DMSO+20% v/v (30% v/v solutol)+75% v/v brine to prepare a solution, which was administered to SD rats by intravenous bolus at a dose of 1 mg/kg. Blood samples were collected at 5 min, 15 min, 30 min, 1 h, 2 h, 4 h, 6 h, 8 h and 24 h.
The animals were fixed, with tails warmed in a water bath 10 min before each sampling time point. About 100 μL of blood was collected via the tail vein, and the blood samples were collected in anticoagulation tubes containing EDTA-K2. The blood samples were centrifuged at 8,000 rpm for 6 min at 4° C. to give plasma samples within 30 min after collection. The plasma samples were stored in a refrigerator at −80° C. before test.
The sample was taken out from the −80° C. refrigerator, and vortexed for 5 min after naturally thawed at room temperature. 20 μL of plasma sample was pipetted into a 1.5 mL centrifuge tube, and 200 μL of 100 ng/mL internal standard working solution (a solution of tolbutamide in methanol) was added. The resulting mixture was mixed, vortexed for 5 min, and then centrifuged at 12,000 rpm for 5 min. 50 μL of the supernatant was pipetted into a 96-well plate with 150 μL of water per well, and the plate was vortexed for 5 min before LC-MS/MS analysis.
The concentration was calculated by Analyst 1.6.3 from AB Sciex. Parameters such as mean, standard deviation and coefficient of variation (excluding those output directly by Analyst 1.6.3) were calculated by Microsoft Excel. PK parameters were calculated by Pharsight Phoenix 6.1 software NCA (Tmax was in median).

Where two headings read alike, the source gives them in different places.

Molecule `CCn1c(-c2nc3cc(C(=O)N4CCC[C@@H](N)C4)cc(OC)c3n2C)cc2ccoc21` [Compound 4, (R)-(3-aminopiperidin-1-yl)(2-(6-ethyl-6H-furo[2,3-b]pyrrol-5-yl)-7-methoxy-1-methyl-1H-benzo[d]imidazol-5-yl)methanone] returned an IC50 in data set [1] of 350 nM. Also, in data set [2], the half-life at 1 μM was 11.6 h and the microsomal CLint at 1 μM was determined as 2 µL/min/mg. In data set [3], this molecule registered a half-life at 1 μM of 5.5 h.
Regarding `COc1cc(C(=O)N2CCC[C@@H](N)C2)cc2nc(-c3cc4ccoc4n3CC3CC3)n(C)c12` [Compound 24, (R)-(3-aminopiperidin-1-yl)(2-(6-(cyclopropylmethyl)-6H-furo[2,3-b]pyrrol-5-yl)-7-methoxy-1-methyl-1H-benzo[d]imidazol-5-yl)methanone], the midpoint of inhibition in data set [1], the IC50, lay at 54 nM. This lies in the double-digit nanomolar range.
In data set [1], `CCn1c(-c2nc3cc(C(=O)N4CCC[C@@H](N)C4)cc(OC)c3n2C)cc2cccnc21` [Compound GSK199, reference compound] had an IC50 of 140 nM. The half-life at 1 μM was 4.45 h in data set [2] and 12.8 h in data set [3]. In addition, the microsomal CLint at 1 μM was found to be 5.2 µL/min/mg in data set [2] and 1.8 µL/min/mg in data set [3]. Also, the bioavailability in data set [4] (IV 1 mg/kg, PO 5 mg/kg, n = 3, read-out: F (absolute bioavailability)) worked out at 33.1%. For the same molecule, the AUC(0-t) in data set [4] (IV 1 mg/kg, n = 3, read-out: AUClast iv (area under concentration-time curve 0-24 h)) came out at 330 ng·h/mL; in data set [4] (PO 5 mg/kg, n = 3, read-out: AUClast po (area under concentration-time curve 0-24 h)), 496 ng·h/mL. In data set [4] (IV 1 mg/kg, n = 3, read-out: Cl_obs iv (clearance) (converted)), the clearance was 48.2 mL/min/kg. The Vd in data set [4] (IV 1 mg/kg, n = 3, read-out: Vz_obs iv (apparent volume of distribution)) is 6.75 L/kg. In addition, the half-life was 1.63 h in data set [4] (IV 1 mg/kg, n = 3, read-out: tz1/2 iv (terminal half-life) (converted)) and 2.23 h in data set [4] (PO 5 mg/kg, n = 3, read-out: tz1/2 po (terminal half-life) (converted)). The Tmax in data set [4] (PO 5 mg/kg, n = 3, median, read-out: Tmax po (time to maximum plasma concentration)) worked out at 4 h.
